Results on 7 compounds are retold here after patent US8716273B2, “N-(amino-heteroaryl)-1H-pyrrolopyridine-2-carboxamides derivatives preparation thereof and their use in therapy” (SANOFI, priority 2006, dated 2014).

One experiment concerns the target T1, TRPV1 receptors (Mus musculus, UniProt Q704Y3).
T1 construct: from tissue; host or cells: cornea of the living mouse (C-fibre innervation)
Kind of experiment: Mouse cornea irritation test (capsaicin-induced eye rubbing). It counts as in vivo. To be noted: compound 500 μM, 2 μl local application to the cornea 10 minutes before 2 μl of 160 μM capsaicin, rubbings counted for 2 minutes. The procedure: Mouse Cornea Irritation Test
The irritant nature of capsaicin is easily appreciated at the level of the cornea since this organ is one of the most innervated with the C-fibres. In this context, according to preliminary experiments, the application of a very small amount of capsaicin (2 μl at a concentration of 160 μM) to the surface of the cornea of an animal leads to a certain number of stereotypical behaviors associated with irritation, which are easily listed. These include: blinking, rubbing of the instilled eye by the ipsilateral forepaw, rubbing of the face with both forepaws, scratching of the ipsilateral face by the hindpaw. […] Moreover, its appearance is also normal. […] It can be concluded that the duration of action of capsaicin at these doses is less than 2 minutes.
SUMMARY OF THE METHODOLOGY
The principle of the series of tests is to determine whether the compounds of the invention can influence the behavioral response induced by a specified amount of capsaicin. The capsaicin is initially diluted to 25 mM in DMSO and diluted, for final use, in physiological serum with Tween 80 at 10%. It appears, from control studies, that in these conditions the solvent has no effect.
In practice, the test product, prepared at 25 mM in DMSO and diluted for final use in physiological serum with 10% of Tween 80 at the strongest concentration of 500 μM, is administered by local application to the surface of the cornea at a volume of 2 μl, 10 minutes before application of the capsaicin. The animal receives an ocular instillation of 2 μl of a 160 μM capsaicin solution prepared as stated above. For an observation period of 2 minutes following instillation, the number of times the instilled eye is rubbed by the ipsilateral forepaw is counted for each animal.
For a given group, the percentage protection is calculated as follows: P=100−((average number of scratchings of the group treated with the compound/average number of scratchings of the group treated with the solvent)×100)
This percentage protection is averaged for each group of animals (n=number of animals tested with the compound of the invention).

The target in the next experiment is T2, TRPV1 receptor (Rattus norvegicus, UniProt O35433).
T2 construct: The neurons of the DRG express the TRPV1 receptor naturally; endogenous in cells; host or cells: primary culture of neonatal rat dorsal root ganglion neurons
Kind of experiment: Test of inhibition of the current induced by capsaicin on the rat DRG (whole-cell patch-clamp). It counts as cell-based. The conditions noted are these: inhibition of the capsaicin control response, primary culture of neonate rat DRG neurons. The procedure: Test of Inhibition of the Current Induced by Capsaicin on the Rat DRG
Primary Culture of Rat Dorsal Root Ganglion (DRG) Cells:
The neurons of the DRG express the TRPV1 receptor naturally.
Primary cultures of DRG of neonate rats are prepared from 1-day-old rats. Briefly, after dissection, the ganglia are trypsinized and the cells are dissociated mechanically by careful trituration. The cells are resuspended in Eagle's basic culture medium containing 10% of fetal calf serum, 25 mM KCl, 2 mM glutamine, 100 μg/ml gentamicin and 50 ng/ml of NGF, then deposited on glass slides covered with laminin (0.25×10^6 cells per slide), which are then placed in Corning 12-well plates. The cells are incubated at 37° C. in a humidified atmosphere containing 5% CO2 and 95% air. Cytosine β-D-arabinoside (1 μM) is added 48 h after culture set-up, to prevent the development of non-neuronal cells. The slides are transferred to the test chambers for patch-clamp investigations after 7-10 days in culture.
The measuring chambers (volume 800 μl) containing the cellular preparation are placed on the stage of an inverted microscope (Olympus IMT2) fitted with Hoffman optics (Modulation Contrast, New York) and are observed at magnification of 400×. The chambers are continually perfused by gravity (2.5 ml/min) by means of a solution distributor accepting 8 inlets and whose single outlet, comprising a polyethylene tube (inside diameter 500 μm) is positioned at less than 3 mm from the cell under investigation. […] The total currents (membrane potential fixed at −60 mV) were recorded with an Axopatch 1D amplifier (Axon Instruments, Foster City, Calif.), connected to a PC controlled by Pclamp8 software (Axon Instrument). The current traces are recorded on paper and simultaneously digitized (sampling frequency […]) and saved to the hard disk of the PC.
The application of a micromolar solution of capsaicin induces a cationic input current on the DRG cells (voltage fixed at −70 mV). […] The results are expressed as percentage inhibition of the capsaicin control response.

T1 sequence (Q704Y3 whole entry): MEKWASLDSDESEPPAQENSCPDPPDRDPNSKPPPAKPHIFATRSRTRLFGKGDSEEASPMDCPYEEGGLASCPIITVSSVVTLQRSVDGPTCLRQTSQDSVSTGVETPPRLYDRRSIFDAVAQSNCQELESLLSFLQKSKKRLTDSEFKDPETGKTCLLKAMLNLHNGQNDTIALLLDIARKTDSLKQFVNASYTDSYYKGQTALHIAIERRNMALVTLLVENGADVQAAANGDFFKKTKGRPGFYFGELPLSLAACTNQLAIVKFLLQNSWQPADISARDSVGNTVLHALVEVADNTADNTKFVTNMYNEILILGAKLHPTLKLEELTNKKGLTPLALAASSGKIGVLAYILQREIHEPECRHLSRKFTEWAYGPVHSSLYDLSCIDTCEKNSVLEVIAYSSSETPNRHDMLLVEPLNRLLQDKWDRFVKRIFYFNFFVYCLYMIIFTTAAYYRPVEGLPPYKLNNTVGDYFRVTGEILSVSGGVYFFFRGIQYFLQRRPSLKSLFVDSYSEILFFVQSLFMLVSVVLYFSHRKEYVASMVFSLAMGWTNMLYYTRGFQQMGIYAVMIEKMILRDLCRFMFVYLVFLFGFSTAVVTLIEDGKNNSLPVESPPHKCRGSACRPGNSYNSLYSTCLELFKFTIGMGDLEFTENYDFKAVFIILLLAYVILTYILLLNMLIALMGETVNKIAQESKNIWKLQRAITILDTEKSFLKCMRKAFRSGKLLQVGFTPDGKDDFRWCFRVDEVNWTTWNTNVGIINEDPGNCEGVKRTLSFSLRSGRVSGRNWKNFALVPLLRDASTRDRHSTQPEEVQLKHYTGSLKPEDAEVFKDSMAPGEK
T2 sequence (O35433 whole entry): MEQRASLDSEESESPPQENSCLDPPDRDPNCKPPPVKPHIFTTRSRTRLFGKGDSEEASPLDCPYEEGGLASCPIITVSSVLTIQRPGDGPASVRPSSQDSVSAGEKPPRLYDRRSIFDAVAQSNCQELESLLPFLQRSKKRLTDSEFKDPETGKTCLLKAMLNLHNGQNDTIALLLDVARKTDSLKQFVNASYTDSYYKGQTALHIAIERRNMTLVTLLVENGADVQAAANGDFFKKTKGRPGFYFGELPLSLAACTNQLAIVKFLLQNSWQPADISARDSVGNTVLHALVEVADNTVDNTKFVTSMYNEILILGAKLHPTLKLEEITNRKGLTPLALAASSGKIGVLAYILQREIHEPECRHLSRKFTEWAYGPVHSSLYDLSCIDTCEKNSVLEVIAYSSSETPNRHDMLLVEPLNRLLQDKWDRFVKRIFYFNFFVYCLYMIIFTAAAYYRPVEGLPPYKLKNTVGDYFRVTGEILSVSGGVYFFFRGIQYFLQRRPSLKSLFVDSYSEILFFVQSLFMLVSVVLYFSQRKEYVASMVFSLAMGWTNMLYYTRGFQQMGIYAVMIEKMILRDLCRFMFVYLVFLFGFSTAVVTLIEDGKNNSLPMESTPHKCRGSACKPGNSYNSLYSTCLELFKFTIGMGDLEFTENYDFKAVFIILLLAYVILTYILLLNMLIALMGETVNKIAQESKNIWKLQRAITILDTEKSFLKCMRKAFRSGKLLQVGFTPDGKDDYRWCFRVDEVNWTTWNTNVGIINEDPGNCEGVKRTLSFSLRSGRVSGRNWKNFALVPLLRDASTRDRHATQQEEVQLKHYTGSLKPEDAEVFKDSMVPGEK

Take `CNc1ccc(NC(=O)c2cc3cc(C(F)(F)F)cnc3n2Cc2cccc(F)c2)cn1` [Compound 1, N-[(6-Methylamino)pyridin-3-yl]-5-trifluoromethyl-1-(3-fluorobenzyl)-1H-pyrrolo[2,3-b]pyridine-2-carboxamide]: the “% P 500 μM (percentage protection)” value on TRPV1 receptors is given as 51%.

For `Cc1cc(N(C)C)ncc1NC(=O)c1cc2cc(C(F)(F)F)cnc2n1Cc1cccc(F)c1.Cl` [Compound 3, N-(6-N,N-Dimethylamino-4-methyl-pyridin-3-yl)-5-trifluoromethyl-1-(3-fluorobenzyl)-1H-pyrrolo[2,3-b]pyridine-2-carboxamide hydrochloride (1:1)], the “% P 500 μM (percentage protection)” value at TRPV1 receptors came out at 34%.

On to `CN(C)c1ncc(NC(=O)c2cc3cc(C(F)(F)F)cnc3n2Cc2cccc(F)c2)cc1C(F)(F)F.Cl` [Compound 4, N-(6-N,N-Dimethylamino-5-trifluoromethyl-pyridin-3-yl)-5-trifluoromethyl-1-(3-fluorobenzyl)-1H-pyrrolo[2,3-b]pyridine-2-carboxamide hydrochloride (1:1)], for which, on TRPV1 receptor (compound at 1 nM), the “Percentage inhibition in patch DRG” value is listed as 98% (1 nM).

As to `O=C(Nc1ccc(N2CCCC2)nc1)c1cc2cc(C(F)(F)F)cnc2n1Cc1cccc(F)c1` [Compound 6, N-[6-(Pyrrolidin-1-yl)pyridin-3-yl]-5-trifluoromethyl-1-(3-fluorobenzyl)-1H-pyrrolo[2,3-b]pyridine-2-carboxamide], the inhibition at 0.001 µM at TRPV1 receptor (DRG neuron, compound at 1 nM, read-out: Percentage inhibition in patch DRG) is 71%. For the same compound, the “% P 500 μM (percentage protection)” value on TRPV1 receptors was found to be 30%.

In the case of `O=C(Nc1ccc(N2CCCC2)nc1)c1cc2cc(C(F)(F)F)cnc2n1Cc1ccncc1` [Compound 9, N-[6-(Pyrrolidin-1-yl)pyridin-3-yl]-5-trifluoromethyl-1-[(4-pyridyl)methyl]-1H-pyrrolo[2,3-b]pyridine-2-carboxamide], on TRPV1 receptors, the “% P 500 μM (percentage protection)” value came to 43%.

Regarding `O=C(Nc1ccc(N2CCC(F)(F)C2)nc1)c1cc2cc(C(F)(F)F)cnc2n1Cc1cccc(F)c1` [Compound 12, N-[6-(3,3-difluoropyrrolidin-1-yl)pyridin-3-yl]-5-trifluoromethyl-1-(3-fluorobenzyl)-1H-pyrrolo[2,3-b]pyridine-2-carboxamide], on TRPV1 receptors, the “% P 500 μM (percentage protection)” value was 83%.

As to `O=C(Nc1ccc(N2CCC2)nc1)c1cc2cc(C(F)(F)F)cnc2n1Cc1cccc(F)c1` [Compound 15, N-[6-(Azetidin-1-yl)pyridin-3-yl]-5-trifluoromethyl-1-(3-fluorobenzyl)-1H-pyrrolo[2,3-b]pyridine-2-carboxamide], at TRPV1 receptor (DRG neuron, compound at 10 nM, read-out: Percentage inhibition in patch DRG), the inhibition at 0.01 µM came to 100%.
